Where a name gives a salt, the structure may show the parent alone.
Tests used:
IL-5 production = assay: Test 3: inhibition of IL-5 production in human PBMC stimulated with ConA; format: cell-based; details: 10^-6 M, 10 μg/ml ConA, 48 hours, read-out: Inhibition rate of IL-5 production
Experimental: Test 3: Test on the inhibition of IL-5 production
The peripheral blood was collected from a normal volunteer and peripheral blood mononuclear cells (PBMC) of the human peripheral blood were separated therefrom by the specific gravity centrifugation method. They were suspended in an AIM-V medium and their cell count was adjusted. To individual wells of a 96-well incubation plate, 1×10^6 cells/ml of PBMC were poured, followed by the addition of a stimulator (10 μg/ml of ConA) and a medicament. The resulting mixture was incubated in 5% CO2 at 37° C. for 48 hours. After incubation, 50 μl of the supernatant were collected and subjected to measurement by a human IL-5 EIA kit (BIO SOURCE, INC.). The inhibition rate was calculated according to the following formula. [formula]

IL-4 production = assay: Test 1: inhibition of IL-4 production in human T-cell strain ATL-16T(-) stimulated with PMA (R&D Systems EIA); format: cell-based; details: ATL-16T(-) 1×10^6 cells/0.5 ml/well, 20 nM PMA, 48 hours, read-out: Inhibition rate of IL-4 production; for inhibition at 10 µM: 10^-5 M; for inhibition at 1 µM: 10^-6 M; for inhibition at 0.1 µM: 10^-7 M; for inhibition at 0.01 µM: 10^-8 M
Experimental: Test 1: Test on the inhibition of IL-4 production
Into individual wells of a 48-well microplate, the human T-cell strain ATL-16T(-) was poured at a concentration of 1×10^6 cells/0.5 ml/well (n=3), followed by the addition of a stimulator (20 nM of PMA) and a medicament at the same time. The resulting mixture was incubated in 5% CO2 at 37° C. for 48 hours. After incubation, 100 μl of the supernatant were collected and subjected to measurement by a human IL-4 EIA kit (R&D SYSTEMS, INC.). The inhibition rate was calculated according to the following formula. [formula]

Row | Structure (SMILES) | inhibition at 1 µM (IL-5 production) | inhibition at 10 µM (IL-4 production) | inhibition at 1 µM (IL-4 production) | inhibition at 0.1 µM (IL-4 production) | inhibition at 0.01 µM (IL-4 production)
1 | COc1cnc(/C=C/C(=O)c2ccccc2)cc1OC1CCCC1 [Ex. 2, 4-Cyclopentyloxy-5-methoxy-2-(3-oxo-3-phenyl-1-propenyl)pyridine] | 93.4% | 113% | 103% | 93.5% | 82.8%
2 | COc1cnc(/C=C/C(=O)c2ccccc2)cc1OCc1ccccc1 [Ex. 3, 4-Benzyloxy-5-methoxy-2-(3-oxo-3-phenyl-1-propenyl)pyridine] | 65.8% | 98.9% | 81.1% | 75.9% | 60%
3 | COCOc1cc(/C=C/C(=O)c2ccccc2)ncc1OC [Ex. 4, 5-Methoxy-4-methoxymethyloxy-2-(3-oxo-3-phenyl-1-propenyl)pyridine] | 60.2% | 86.2% | 75.2% | 67.9% | 57.4%
4 | COCOc1cnc(/C=C/C(=O)c2ccccc2)cc1OCOC [Ex. 5, 4,5-Bis(methoxymethyloxy)-2-(3-oxo-3-phenyl-1-propenyl)pyridine] | 89.3% | 104% | 90% | 74% | 50.9%
5 | COc1cc(/C=C/C(=O)c2ccccc2)ncc1OC(C)=O [Ex. 6, 5-Acetoxy-4-methoxy-2-(3-oxo-3-phenyl-1-propenyl)pyridine] | 67% | 102% | 86.1% | 75.2% | 58.8%
6 | COc1cnc(/C=C/C(=O)c2ccccc2)cc1OC(C)=O [Ex. 7, 4-Acetoxy-5-methoxy-2-(3-oxo-3-phenyl-1-propenyl)pyridine] | 94.2% | 91.8% | 79.8% | 76.4% | 63.9%
7 | CC(=O)Oc1cnc(/C=C/C(=O)c2ccccc2)cc1OC(C)=O [Ex. 8, 4,5-Diacetoxy-2-(3-oxo-3-phenyl-1-propenyl)pyridine] | 75.3% | 94.3% | 88% | 76.2% | 60.2%
8 | CCCCCC(=O)/C=C/c1cc(OC2CCCC2)c(OC)cn1 [Ex. 9, 4-Cyclopentyloxy-5-methoxy-2-(3-oxo-1-octenyl)pyridine] | 82.5% | 94.6% | 92.7% | 86.5% | 70.7%
9 | COc1cnc(/C=C/C(=O)C2CCCC2)cc1OC1CCCC1 [Ex. 10, 2-(3-Cyclopentyl-3-oxo-1-propenyl)-4-cyclopentyloxy-5-methoxypyridine] | 62.9% | 93.6% | 83.5% | 83.2% | 47.8%
10 | CCCCCC(=O)/C=C/c1cc(OC(C)=O)c(OC(C)=O)cn1 [Ex. 11, 4,5-diacetoxy-2-(3-oxo-1-octenyl)pyridine] | 77.3% | 94.1% | 87.2% | 79.6% | 78.9%
11 | CCOC(=O)CCCCCOc1cc(/C=C/C(=O)c2ccccc2)ncc1OC [Ex. 12, Ethyl 6-[5-methoxy-2-(3-oxo-3-phenyl-1-propenyl)-4-pyridyloxy]hexanoate] | 72.4% | 78.6% | 61.6% | 52.9% | 43%
12 | CCCCCC(=O)/C=C/c1cc(OCCCC(=O)OCC)c(OC)cn1 [Ex. 13, Ethyl 4-[5-methoxy-2-(3-oxo-1-octenyl)-4-pyridyloxy]butanoate] | 80.9% | 87.9% | 77% | 68.7% | 62.3%
13 | COC(=O)CCCOc1cc(/C=C/C(=O)c2ccccc2)ncc1OC [Ex. 16, Methyl 4-[5-methoxy-2-(3-oxo-3-phenyl-1-propenyl)-4-pyridyloxy]butanoate] | 79.4% | 90.1% | 82.1% | 81.6% | 76.8%
14 | COC(=O)CCCCCOc1cnc(/C=C/C(=O)C2CCCC2)cc1OC [Ex. 17, Methyl 6-[4-methoxy-2-(3-cyclopentyl-3-oxo-1-propenyl)-5-pyridyloxy]hexanoate] | 84.3% | 111% | 92.8% | 88.6% | 74.7%
15 | COC(=O)CCCOc1cnc(/C=C/C(=O)C2CCCC2)cc1OC [Ex. 18, Methyl 4-[4-methoxy-2-(3-cyclopentyl-3-oxo-1-propenyl)-5-pyridyloxy]butanoate] | 96.9% | 88.2% | 78.3% | 67.8% | 34.8%
16 | COc1cc(/C=C/C(=O)c2ccccc2)ncc1O [Ex. 21, 5-hydroxy-4-methoxy-2-(3-oxo-3-phenyl-1-propenyl)pyridine] | 67.3% | 97.3% | 90.3% | 80.1% | 72.5%
17 | CCCCCC(=O)/C=C/c1cc(O)c(O)cn1 [Ex. 22, 4,5-Dihydroxy-2-(3-oxo-1-octenyl)pyridine] | 80.9% | 111% | 75.5% | 67.6% | 50%
18 | COc1cnc(/C=C/C(O)c2ccccc2)cc1OC (stereo not shown) [Ex. 23, 4,5-dimethoxy-2-(3-hydroxy-3-phenyl-1-propenyl)pyridine] | 96.3% | 88% | 80.7% | 64.9% | 64.7%
19 | COc1cnc(/C=C/C(O)c2ccccc2)cc1O (stereo not shown) [Ex. 24, 4-Hydroxy-2-(3-hydroxy-3-phenyl-1-propenyl)-5-methoxypyridine] | 80% | 92.2% | 79.5% | 69.5% | 56%
20 | CCCCCC(O)/C=C/c1cc(OCCCCCC(=O)OC)c(OC)cn1 (stereo not shown) [Ex. 30, Methyl 6-[2-(3-hydroxy-1-octenyl)-5-methoxy-4-pyridyloxy]hexanoate] | 73.2% | 74% | 67% | 56.8% | 40.7%
21 | COC(=O)CCCCCOc1cnc(/C=C/C(O)C2CCCC2)cc1OC (stereo not shown) [Ex. 31, Methyl 6-[2-(3-cyclopentyl-3-hydroxy-1-propenyl)-4-methoxy5-pyridyloxy]hexanoate] | 71.6% | 81.2% | 69.5% | 58% | 40.4%
22 | COc1cnc(/C=C/C(=O)c2ccccc2)cc1OCCCC(=O)O [Ex. 33, 4-[5-methoxy-2-(3-oxo-3-phenyl-1-propenyl)-4-pyridyloxy]butanoic acid] | 72.1% | 107% | 93.9% | 90% | 86.1%
23 | CCCCCC(O)/C=C/c1cc(OCCCCCC(=O)O)c(OC)cn1 (stereo not shown) [Ex. 35, 6-[2-(3-Hydroxy-1-octenyl)-5-methoxy-4-pyridyloxy]hexanoic acid] | 82.2% | 90.3% | 89.3% | 82.5% | 64.3%
24 | COc1cc(/C=C/C(O)C2CCCC2)ncc1OCCCCCC(=O)O (stereo not shown) [Ex. 36, 6-[2-(3-Cyclopentyl-3-hydroxy-1-propenyl)-4-methoxy-5-pyridyloxy]hexanoic acid hydrochloride] | 86.5% | 85.1% | 78.9% | 68.6% | 37.6%
25 | COc1cc(/C=C/C(=O)C2CCCC2)ncc1OCCCCCC(=O)O [Ex. 38, 6-[2-(3-Cyclopentyl-3-oxo-1-propenyl)-4-methoxy-5-pyridyloxy]hexanoic acid hydrochloride] | 88.7% | 76.3% | 68.9% | 59% | 42.4%
26 | COc1cnc(/C=C/C(=O)N2CCOCC2)cc1OC [Ex. 110, 4,5-Dimethoxy-2-(3-morpholino-3-oxo-1-propenyl)pyridine hydrochloride] | 79.3% |  |  |  | 
27 | COc1cnc(/C=C/C(=O)N2CCCCC2)cc1OC1CCCC1 [Ex. 111, 4-Cyclopentyloxy-5-methoxy-2-(3-oxo-3-piperidino-1-propenyl)pyridine hydrochloride] | 73.2% |  |  |  | 
